The target of this experiment is cloned human NR1/NR2B ion channels (Homo sapiens (Human), UniProt Q05586+Q13224). Briefly: HNR2BC: effects of test articles on cloned human NR1/NR2B ion channels expressed in mammalian cells (FLIPR calcium flux). The conditions noted are these: Table 5. Format: cell-based. The procedure, abridged:
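Compounds were added to dye-loaded cells for 5 min with fluorescence monitored for agonism, followed by co-agonists (glutamate ~EC80, glycine 10 μM saturating) for 5 min. Cells stably expressed inducible human NR1/NR2B, and the buffer was pH 7.4. The FLIPR Ca2+ flux signal was normalized against control wells.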

[1] abbreviates: cloned human NR1/NR2B ion channels.

Where a name gives a salt, the structure may show the parent alone.

Sequence of cloned human NR1/NR2B ion channels (Q13224 27-1484, other chains not shown): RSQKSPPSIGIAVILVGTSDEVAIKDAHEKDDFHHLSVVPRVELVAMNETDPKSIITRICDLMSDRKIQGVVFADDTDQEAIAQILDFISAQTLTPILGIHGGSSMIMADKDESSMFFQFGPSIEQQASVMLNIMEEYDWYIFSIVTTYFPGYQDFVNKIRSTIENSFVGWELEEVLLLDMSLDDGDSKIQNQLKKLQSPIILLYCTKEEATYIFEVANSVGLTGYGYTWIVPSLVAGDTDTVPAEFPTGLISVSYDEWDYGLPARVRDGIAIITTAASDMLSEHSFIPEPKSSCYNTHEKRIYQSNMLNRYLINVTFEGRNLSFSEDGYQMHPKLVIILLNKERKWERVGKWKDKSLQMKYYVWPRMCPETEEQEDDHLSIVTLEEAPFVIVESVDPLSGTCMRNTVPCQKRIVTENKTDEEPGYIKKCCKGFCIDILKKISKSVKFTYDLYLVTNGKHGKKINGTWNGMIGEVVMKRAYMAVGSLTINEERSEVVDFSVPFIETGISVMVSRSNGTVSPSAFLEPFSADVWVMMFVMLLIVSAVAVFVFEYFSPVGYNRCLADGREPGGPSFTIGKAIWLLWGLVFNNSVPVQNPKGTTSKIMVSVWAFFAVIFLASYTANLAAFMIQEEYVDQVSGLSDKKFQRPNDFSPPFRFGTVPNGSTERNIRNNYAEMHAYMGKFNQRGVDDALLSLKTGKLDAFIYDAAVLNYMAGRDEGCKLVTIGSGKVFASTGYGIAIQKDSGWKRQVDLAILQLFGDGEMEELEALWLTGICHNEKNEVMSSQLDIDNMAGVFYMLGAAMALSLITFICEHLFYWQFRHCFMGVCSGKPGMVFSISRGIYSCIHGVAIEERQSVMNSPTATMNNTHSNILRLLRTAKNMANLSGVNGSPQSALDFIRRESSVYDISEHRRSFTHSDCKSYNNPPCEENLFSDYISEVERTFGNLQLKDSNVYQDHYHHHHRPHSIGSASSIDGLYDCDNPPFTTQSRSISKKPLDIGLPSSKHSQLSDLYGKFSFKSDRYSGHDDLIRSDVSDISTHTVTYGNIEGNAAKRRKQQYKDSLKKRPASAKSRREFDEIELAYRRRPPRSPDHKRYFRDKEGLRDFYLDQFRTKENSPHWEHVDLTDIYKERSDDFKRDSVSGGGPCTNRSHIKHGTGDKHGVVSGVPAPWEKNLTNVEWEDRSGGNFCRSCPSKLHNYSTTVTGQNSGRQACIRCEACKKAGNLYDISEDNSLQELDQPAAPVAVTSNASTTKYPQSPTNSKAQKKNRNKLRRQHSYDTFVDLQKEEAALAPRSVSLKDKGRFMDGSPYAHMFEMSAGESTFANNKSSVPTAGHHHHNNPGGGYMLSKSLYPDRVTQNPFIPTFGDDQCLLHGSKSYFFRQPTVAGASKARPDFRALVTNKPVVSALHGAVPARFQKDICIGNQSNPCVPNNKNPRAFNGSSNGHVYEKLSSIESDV

For the molecule `CCN(C)C(=O)Cn1ccc2ncc(-c3ccc(F)c(C)c3F)cc21` [Example 469, 2-[6-(2,4-Difluoro-3-methyl-phenyl)pyrrolo[3,2-b]pyridin-1-yl]-N-ethyl-N-methyl-acetamide], under setting [1], the IC50 is 15.8 nM.

In the case of `CC(C)C(O)Cn1ccc2ncc(-c3cc(F)cc(F)c3)cc21` (racemic) [Example 272], the IC50 (cloned human NR1/NR2B) is 25.1 nM.

As for `Cc1cn(CC(=O)NC2CC2)c2cc(-c3ccc(F)cc3)cnc12` [Example 32, N-Cyclopropyl-2-[6-(4-fluorophenyl)-3-methyl-pyrrolo[3,2-b]pyridin-1-yl]acetamide], where the note is “cloned human NR1/NR2B”, the IC50 is 398 nM.

For `CCN(C)C(=O)Cn1cc(C)c2ncc(-c3cc(F)cc(F)c3)cc21` [Example 557, 2-[6-(3,5-Difluorophenyl)-3-methyl-pyrrolo[3,2-b]pyridin-1-yl]-N-ethyl-N-methyl-acetamide], the IC50 under setting [1] is 126 nM.

As for `O=C(Cn1ccc2ncc(-c3ccc(F)c(F)c3F)cc21)N1CCCC1` [Example 120, 1-Pyrrolidin-1-yl-2-[6-(2,3,4-trifluorophenyl)pyrrolo[3,2-b]pyridin-1-yl]ethanone], for the setting “cloned human NR1/NR2B”, the IC50 was 631 nM.

For `O=C(Cn1cc(F)c2ncc(-c3cccc(Cl)c3)cc21)N1CC(F)C1` [Example 489, 2-[6-(3-Chlorophenyl)-3-fluoro-pyrrolo[3,2-b]pyridin-1-yl]-1-(3-fluoroazetidin-1-yl)ethanone], the pIC50 under setting [1] worked out at 8.0.

With `O=C(Cn1cc(F)c2ncc(-c3ccc(F)c(F)c3)cc21)N1CCC1` [Example 382, 1-(Azetidin-1-yl)-2-[6-(3,4-difluorophenyl)-3-fluoro-pyrrolo[3,2-b]pyridin-1-yl]ethanone], under setting [1], the IC50 is 15.8 nM.

`O=C(Cn1ccc2ncc(-c3ccsc3)cc21)N1CCC1` [Example 385, 1-(Azetidin-1-yl)-2-[6-(3-thienyl)pyrrolo[3,2-b]pyridin-1-yl]ethanone trifluoroacetate salt]: the IC50 under setting [1] is 20 nM.

As for `Cc1cccc(-c2cnc3c(F)cn(CC(=O)N4CCC4)c3c2)c1F` [Example 472, 1-(Azetidin-1-yl)-2-[3-fluoro-6-(2-fluoro-3-methyl-phenyl)pyrrolo[3,2-b]pyridin-1-yl]ethanone], the IC50 under setting [1] is 200 nM.

As for `Cc1c(F)ccc(-c2cnc3c(C)cn(CC(=O)N4CCC4)c3c2)c1F` [Example 627, 1-(Azetidin-1-yl)-2-[6-(2,4-difluoro-3-methyl-phenyl)-3-methyl-pyrrolo[3,2-b]pyridin-1-yl]ethanone], the IC50 under setting [1] is 158 nM.

With `O=C(Cn1ccc2ncc(-c3cc(F)cc(F)c3)cc21)N1CCC1` [Example 355, 1-(Azetidin-1-yl)-2-[6-(3,5-difluorophenyl)pyrrolo[3,2-b]pyridin-1-yl]ethanone], the half-maximal inhibitory concentration (IC50) (cloned human NR1/NR2B) is 50.1 nM.

With `O=C(Cn1cc(Cl)c2ncc(-c3cncc(C(F)(F)F)c3)cc21)N1CCC1` [Example 243, 1-(Azetidin-1-yl)-2-[3-chloro-6-[5-(trifluoromethyl)-3-pyridyl]pyrrolo[3,2-b]pyridin-1-yl]ethanone trifluoroacetate salt], the IC50 (cloned human NR1/NR2B) is 100 nM.

Consider `O=C(Cn1ccc2ncc(-c3cccc(C(F)F)c3)cc21)NC1CC1` [Example 250, N-Cyclopropyl-2-[6-[3-(difluoromethyl)phenyl]pyrrolo[3,2-b]pyridin-1-yl]acetamide], for which the IC50 (cloned human NR1/NR2B) was 251 nM.

For `Cc1csc(-c2cnc3ccn(CC(=O)C(C)(C)C)c3c2)c1` [Example 143, 3,3-Dimethyl-1-[6-(4-methyl-2-thienyl)pyrrolo[3,2-b]pyridin-1-yl]butan-2-one], the IC50 (cloned human NR1/NR2B) was 794 nM.

Turning to `O=C(Cn1ccc2ncc(-c3cccc(F)c3)cc21)N1CC(F)C1` [Example 263, 1-(3-Fluoroazetidin-1-yl)-2-[6-(3-fluorophenyl)pyrrolo[3,2-b]pyridin-1-yl]ethanone trifluoroacetate salt], the IC50 (cloned human NR1/NR2B) is 158 nM.

Take `O=C(Cn1ccc2ncc(-c3ccc(F)c(C(F)(F)F)c3)cc21)N1CCC1` [Example 104, 1-(Azetidin-1-yl)-2-[6-[4-fluoro-3-(trifluoromethyl)phenyl]pyrrolo[3,2-b]pyridin-1-yl]ethanone]: under “cloned human NR1/NR2B”, the 50% inhibitory concentration (IC50) is 31.6 nM.

On to `CCc1cccc(-c2cnc3ccn(CC(=O)N4CC(F)C4)c3c2)c1` [Example 268, 2-[6-(3-Ethylphenyl)pyrrolo[3,2-b]pyridin-1-yl]-1-(3-fluoroazetidin-1-yl)ethanone trifluoroacetate salt], for which, for the setting “cloned human NR1/NR2B”, the IC50 is 79.4 nM.

As for `Cc1cc(-c2cnc3ccn(CC(=O)N4CCOCC4)c3c2)ccc1F` [Example 346, 2-[6-(4-Fluoro-3-methyl-phenyl)pyrrolo[3,2-b]pyridin-1-yl]-1-morpholino-ethanone], where the note is “cloned human NR1/NR2B”, the IC50 is 39.8 nM.

Regarding `Cc1csc(-c2cnc3c(Cl)cn(CC(=O)N(C)C)c3c2)c1` [Example 149, 2-[3-Chloro-6-(4-methyl-2-thienyl)pyrrolo[3,2-b]pyridin-1-yl]-N,N-dimethyl-acetamide], the IC50 (cloned human NR1/NR2B) is 50.1 nM.

With `Cc1ccc(-c2cnc3ccn(CC(=O)N4CC(F)C4)c3c2)s1` [Example 280, 1-(3-Fluoroazetidin-1-yl)-2-[6-(5-methyl-2-thienyl)pyrrolo[3,2-b]pyridin-1-yl]ethanone], the IC50 (cloned human NR1/NR2B) was 31.6 nM.

Regarding `O=C(Cn1cc(F)c2ncc(-c3cc(F)c(F)c(F)c3)cc21)N1CCC1` [Example 383, 1-(Azetidin-1-yl)-2-[3-fluoro-6-(3,4,5-trifluorophenyl)pyrrolo[3,2-b]pyridin-1-yl]ethanone], the IC50 under setting [1] is 15.8 nM.

On to `CN(C)C(=O)Cn1cc(Cl)c2ncc(-c3ccc(F)c(F)c3)cc21` [Example 147, 2-[3-Chloro-6-(3,4-difluorophenyl)pyrrolo[3,2-b]pyridin-1-yl]-N,N-dimethyl-acetamide], for which, under “cloned human NR1/NR2B”, the IC50 was 50.1 nM.

As for `CN(C)C(=O)Cn1cc(Cl)c2ncc(-c3ccc(Cl)s3)cc21` [Example 423, 2-[3-Chloro-6-(5-chloro-2-thienyl)pyrrolo[3,2-b]pyridin-1-yl]-N,N-dimethyl-acetamide], under setting [1], the IC50 was 39.8 nM.

`CN(C)C(=O)Cn1cc(Cl)c2ncc(-c3ccc(F)c(Cl)c3)cc21` [Example 520, 2-[3-Chloro-6-(3-chloro-4-fluoro-phenyl)pyrrolo[3,2-b]pyridin-1-yl]-N,N-dimethyl-acetamide]: the IC50 under setting [1] was 79.4 nM.

Take `O=C(Cn1cc(Cl)c2ncc(-c3ccccc3)cc21)C1CC1` [Example 300, 2-(3-Chloro-6-phenyl-pyrrolo[3,2-b]pyridin-1-yl)-1-cyclopropyl-ethanone]: the IC50 (cloned human NR1/NR2B) is 20 nM.

With `O=C(Cn1cc(F)c2ncc(-c3cccc(C(F)(F)F)c3)cc21)N1CC(F)C1` [Example 484, 1-(3-Fluoroazetidin-1-yl)-2-[3-fluoro-6-[3-(trifluoromethyl)phenyl]pyrrolo[3,2-b]pyridin-1-yl]ethanone], the half-maximal inhibitory concentration (IC50) under setting [1] was 12.6 nM.

`Cc1ccc(F)c(-c2cnc3ccn(CC(=O)N(C)C)c3c2)c1F` [Example 444, 2-[6-(2,6-Difluoro-3-methyl-phenyl)pyrrolo[3,2-b]pyridin-1-yl]-N,N-dimethyl-acetamide]: the IC50 under setting [1] was 631 nM.

Turning to `Cc1cccc(-c2cnc3ccn(CC(=O)C(C)C)c3c2)c1C` [Example 225, 1-[6-(2,3-Dimethylphenyl)pyrrolo[3,2-b]pyridin-1-yl]-3-methyl-butan-2-one], the IC50 (cloned human NR1/NR2B) is 79.4 nM.

As to `Cc1c(F)ccc(-c2cnc3c(C)cn(CC(=O)N4CC(F)(F)C4)c3c2)c1F` [Example 626, 1-(3,3-Difluoroazetidin-1-yl)-2-[6-(2,4-difluoro-3-methyl-phenyl)-3-methyl-pyrrolo[3,2-b]pyridin-1-yl]ethanone], under setting [1], the 50% inhibitory concentration (IC50) is 631 nM.

Regarding `Cc1cn(CC(=O)N2CC(F)C2)c2cc(-c3ccc(F)c(F)c3)cnc12` [Example 551, 2-[6-(3,4-Difluorophenyl)-3-methyl-pyrrolo[3,2-b]pyridin-1-yl]-1-(3-fluoroazetidin-1-yl)ethanone], under setting [1], the IC50 was 63.1 nM.

On to `Cc1csc(-c2cnc3ccn(CC(=O)NC4CC4)c3c2)c1` [Example 153, N-Cyclopropyl-2-[6-(4-methyl-2-thienyl)pyrrolo[3,2-b]pyridin-1-yl]acetamide trifluoroacetate salt], for which the IC50 (cloned human NR1/NR2B) is 63.1 nM.

Turning to `CN(C)C(=O)Cn1ccc2ncc(-c3cccc(Cl)c3F)cc21` [Example 448, 2-[6-(3-Chloro-2-fluoro-phenyl)pyrrolo[3,2-b]pyridin-1-yl]-N,N-dimethyl-acetamide], under setting [1], the half-maximal inhibitory concentration (IC50) is 20 nM.

For the molecule `Cc1csc(-c2cnc3c(F)cn(CC(=O)N4CC(F)C4)c3c2)c1` [Example 309, 1-(3-Fluoroazetidin-1-yl)-2-[3-fluoro-6-(4-methyl-2-thienyl)pyrrolo[3,2-b]pyridin-1-yl]ethanone], for the setting “cloned human NR1/NR2B”, the IC50 was 200 nM.

Take `Cc1cc(-c2cnc3ccn(CC(=O)C(C)C)c3c2)ccc1F` [Example 187, 1-[6-(4-Fluoro-3-methyl-phenyl)pyrrolo[3,2-b]pyridin-1-yl]-3-methyl-butan-2-one trifluoroacetate salt]: the IC50 (cloned human NR1/NR2B) was 50.1 nM.

With `Cc1cccc(-c2cnc3c(F)c(C)n(CC(=O)N4CCC4)c3c2)c1` [Example 547, 1-(Azetidin-1-yl)-2-[3-fluoro-2-methyl-6-(m-tolyl)pyrrolo[3,2-b]pyridin-1-yl]ethanone], under setting [1], the IC50 was 398 nM.

For the molecule `CCC1CCCN1C(=O)Cn1ccc2ncc(-c3ccc(F)c(C)c3)cc21` (racemic) [Example 196, (R/S)-1-(2-Ethylpyrrolidin-1-yl)-2-[6-(4-fluoro-3-methyl-phenyl)pyrrolo[3,2-b]pyridin-1-yl]ethanone trifluoroacetate salt], where the note is “cloned human NR1/NR2B”, the IC50 was 1260 nM.

Regarding `O=C(Cn1cc(Cl)c2ncc(-c3cccs3)cc21)N1CC(F)C1` [Example 417, 2-[3-Chloro-6-(2-thienyl)pyrrolo[3,2-b]pyridin-1-yl]-1-(3-fluoroazetidin-1-yl)ethanone], the IC50 under setting [1] is 63.1 nM.

Take `CC(NC(=O)Cn1ccc2ncc(-c3ccc(F)cc3)cc21)C(F)(F)F` (racemic) [Example 231, (R/S)-2-[6-(4-Fluorophenyl)pyrrolo[3,2-b]pyridin-1-yl]-N-(2,2,2-trifluoro-1-methyl-ethyl)acetamide]: the IC50 (cloned human NR1/NR2B) was 2000 nM.

The record behind these values is patent US10377753B2, “Substituted 4-azaindoles and their use as GluN2B receptor modulators” (Janssen Pharmaceutica NV, priority 2015, dated 2019).
